Experiment [1] can be described thus: Luminescence Cell-Based Dose Retest to Confirm Inhibitors of Cancer Stem Cells. [Related pubchem assays (depositor defined):AID2717, AID2721]. Format: functional. The note with it: Homo sapiens.
The target in the next experiment is T1, Cytochrome P450 1A2 (Homo sapiens, UniProt P05177).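 Note: PubChem cytochrome P450 panel assay, CYP1A2 panel member.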
T1 sequence (P05177 whole entry): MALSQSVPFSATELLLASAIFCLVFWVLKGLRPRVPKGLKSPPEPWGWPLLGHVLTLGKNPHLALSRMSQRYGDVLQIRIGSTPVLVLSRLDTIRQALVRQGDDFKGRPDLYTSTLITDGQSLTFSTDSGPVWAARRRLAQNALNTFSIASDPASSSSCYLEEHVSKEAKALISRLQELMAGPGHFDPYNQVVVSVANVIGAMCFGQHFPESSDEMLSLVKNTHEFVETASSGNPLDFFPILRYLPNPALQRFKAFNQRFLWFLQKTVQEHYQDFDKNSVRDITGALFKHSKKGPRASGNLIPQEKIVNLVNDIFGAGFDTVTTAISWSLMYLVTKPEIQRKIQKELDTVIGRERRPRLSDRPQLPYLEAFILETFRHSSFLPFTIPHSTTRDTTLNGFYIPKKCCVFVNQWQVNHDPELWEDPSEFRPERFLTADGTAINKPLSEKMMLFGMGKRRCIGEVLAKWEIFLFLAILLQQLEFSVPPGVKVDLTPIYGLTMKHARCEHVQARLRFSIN

The target of a further experiment is Cytochrome P450 2D6 (Homo sapiens, UniProt P10635).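 Note: CYP2D6 member of a cytochrome P450 panel assay.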
Chain of Cytochrome P450 2D6 (P10635 whole entry): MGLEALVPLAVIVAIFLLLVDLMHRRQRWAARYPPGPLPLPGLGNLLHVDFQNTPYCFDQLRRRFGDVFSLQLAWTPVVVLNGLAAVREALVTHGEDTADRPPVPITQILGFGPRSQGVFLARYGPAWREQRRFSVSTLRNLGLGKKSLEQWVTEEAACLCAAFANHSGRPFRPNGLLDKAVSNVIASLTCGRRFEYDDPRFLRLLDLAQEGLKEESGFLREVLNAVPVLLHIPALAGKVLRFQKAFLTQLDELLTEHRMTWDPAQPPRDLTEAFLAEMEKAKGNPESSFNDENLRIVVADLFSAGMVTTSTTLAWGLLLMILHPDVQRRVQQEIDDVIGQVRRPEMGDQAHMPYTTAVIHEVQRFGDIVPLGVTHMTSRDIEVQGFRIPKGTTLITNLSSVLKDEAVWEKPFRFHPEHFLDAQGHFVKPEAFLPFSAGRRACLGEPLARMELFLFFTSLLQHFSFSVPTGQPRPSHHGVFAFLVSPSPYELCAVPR
Experiment [2] concerns the target T2, Corticotropin-releasing factor receptor 2/Corticotropin-releasing factor-binding protein (Homo sapiens, UniProt P24387+Q13324).
T2 sequence (Q13324 whole entry): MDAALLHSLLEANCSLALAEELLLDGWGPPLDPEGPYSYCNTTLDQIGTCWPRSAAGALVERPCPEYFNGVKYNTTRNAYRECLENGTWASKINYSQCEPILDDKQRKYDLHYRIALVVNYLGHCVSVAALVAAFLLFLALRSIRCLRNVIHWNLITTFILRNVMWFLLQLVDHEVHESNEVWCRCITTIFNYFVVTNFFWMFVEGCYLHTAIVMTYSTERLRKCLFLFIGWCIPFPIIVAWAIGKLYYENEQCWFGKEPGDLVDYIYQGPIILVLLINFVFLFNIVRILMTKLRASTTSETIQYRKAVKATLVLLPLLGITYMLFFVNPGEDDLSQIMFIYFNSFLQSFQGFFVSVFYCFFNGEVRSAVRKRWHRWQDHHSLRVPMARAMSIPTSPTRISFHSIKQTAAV
T2 sequence (P24387 whole entry): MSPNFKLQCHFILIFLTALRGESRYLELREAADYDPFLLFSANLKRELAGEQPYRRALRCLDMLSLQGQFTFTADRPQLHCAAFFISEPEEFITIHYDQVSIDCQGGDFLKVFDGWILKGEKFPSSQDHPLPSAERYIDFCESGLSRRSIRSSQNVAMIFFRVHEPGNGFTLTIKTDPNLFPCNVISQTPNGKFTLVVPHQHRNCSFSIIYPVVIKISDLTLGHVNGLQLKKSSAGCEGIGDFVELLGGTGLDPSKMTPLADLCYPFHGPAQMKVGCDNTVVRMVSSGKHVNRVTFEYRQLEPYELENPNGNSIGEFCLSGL
The experiment is described as follows: Dose Response confirmation of uHTS hits for small molecule antagonists of the CRF-binding protein and CRF-R2 receptor complex. The note with it: read-out: IC50_Mean. It counts as functional.

For experiment [3], the target named is T2, Corticotropin-releasing factor receptor 2/Corticotropin-releasing factor-binding protein. The experiment is described as follows: activators of CRF receptor 2 with binding protein – uHTS hits, confirmation (AID 602473). It counts as functional. The note with it: read-out: EC50_Mean.
Experiment [4] deals with T3, Rac GTPase-activating protein 1 (Homo sapiens, UniProt Q9H0H5).
T3 sequence (Q9H0H5 whole entry): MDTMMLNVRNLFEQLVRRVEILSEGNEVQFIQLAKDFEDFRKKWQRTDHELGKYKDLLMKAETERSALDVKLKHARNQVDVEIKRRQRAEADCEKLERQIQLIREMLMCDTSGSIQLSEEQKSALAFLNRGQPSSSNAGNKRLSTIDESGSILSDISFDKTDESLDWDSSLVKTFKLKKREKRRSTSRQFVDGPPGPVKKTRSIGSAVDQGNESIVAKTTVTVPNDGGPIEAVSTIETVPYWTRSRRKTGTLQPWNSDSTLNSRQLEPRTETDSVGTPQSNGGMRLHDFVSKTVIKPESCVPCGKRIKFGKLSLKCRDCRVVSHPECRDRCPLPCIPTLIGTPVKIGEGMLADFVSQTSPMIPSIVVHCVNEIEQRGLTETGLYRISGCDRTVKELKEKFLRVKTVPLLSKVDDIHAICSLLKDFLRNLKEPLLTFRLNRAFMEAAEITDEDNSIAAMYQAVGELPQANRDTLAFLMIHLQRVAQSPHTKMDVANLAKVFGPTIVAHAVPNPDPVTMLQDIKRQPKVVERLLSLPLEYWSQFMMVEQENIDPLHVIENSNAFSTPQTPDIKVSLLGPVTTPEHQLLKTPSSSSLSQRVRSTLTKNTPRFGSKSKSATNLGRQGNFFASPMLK
The experiment is described as follows: MgcRacGAP GTPase-activating activity inhibitors, confirmation, biochemical, ADP Hunter fluorescence, primary and confirmatory (AID 624330). Format: functional.

Another experiment relates to INS1. The experiment is described as follows: beta cell apoptosis inhibitors, cytokine rescue, dose response, luminescence, retest (AID 449756).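 Note: cell death triggered by IL-1 beta plus TNF-alpha plus IFN-gamma mixture; protective hits raise ATP signal compared with cytokine alone wells.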 Format: functional, cell-based. As to conditions: Rattus norvegicus.
For a further experiment, the target named is Cytochrome P450 2C9 (Homo sapiens, UniProt P11712).
Chain of Cytochrome P450 2C9 (P11712 whole entry): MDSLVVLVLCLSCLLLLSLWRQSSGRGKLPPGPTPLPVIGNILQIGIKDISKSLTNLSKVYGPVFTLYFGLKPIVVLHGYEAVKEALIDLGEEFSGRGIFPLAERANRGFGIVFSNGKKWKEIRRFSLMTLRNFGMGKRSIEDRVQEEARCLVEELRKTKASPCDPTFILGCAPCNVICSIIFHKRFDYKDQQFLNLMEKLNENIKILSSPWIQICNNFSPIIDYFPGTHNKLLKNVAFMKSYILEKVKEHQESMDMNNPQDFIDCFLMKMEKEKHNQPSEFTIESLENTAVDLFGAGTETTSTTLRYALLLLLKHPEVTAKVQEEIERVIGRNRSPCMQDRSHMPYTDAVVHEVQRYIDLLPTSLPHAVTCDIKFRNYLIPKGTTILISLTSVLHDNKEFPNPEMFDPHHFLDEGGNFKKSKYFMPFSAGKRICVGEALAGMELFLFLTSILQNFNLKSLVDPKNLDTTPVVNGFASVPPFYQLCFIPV
The target of another experiment is Cytochrome P450 2C19 (Homo sapiens, UniProt P33261). The experiment is described as follows: Cytochrome panel assay with activity outcomes. Panel member name: p450-cyp2c19 Compounds with AC50 equal or less than 10 uM are considered active. It counts as functional. The note with it: read-out: AC50.
Chain of Cytochrome P450 2C19 (P33261 whole entry): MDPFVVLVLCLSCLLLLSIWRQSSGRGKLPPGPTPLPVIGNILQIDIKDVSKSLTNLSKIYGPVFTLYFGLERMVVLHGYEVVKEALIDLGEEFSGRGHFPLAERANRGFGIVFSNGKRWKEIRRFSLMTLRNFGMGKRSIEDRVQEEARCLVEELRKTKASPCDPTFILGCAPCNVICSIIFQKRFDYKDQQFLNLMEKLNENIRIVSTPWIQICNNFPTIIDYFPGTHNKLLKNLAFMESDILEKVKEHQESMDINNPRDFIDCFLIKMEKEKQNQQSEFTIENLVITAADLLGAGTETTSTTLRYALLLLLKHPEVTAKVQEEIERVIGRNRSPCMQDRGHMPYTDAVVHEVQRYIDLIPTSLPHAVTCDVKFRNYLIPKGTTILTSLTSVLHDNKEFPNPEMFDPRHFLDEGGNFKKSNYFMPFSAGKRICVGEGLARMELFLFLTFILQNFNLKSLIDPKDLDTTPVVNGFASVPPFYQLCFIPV
The target of the next experiment is Cytochrome P450 3A4 (Homo sapiens, UniProt P08684).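 Note: CYP3A4 tested as one member of a cytochrome P450 panel screen.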
Chain of Cytochrome P450 3A4 (P08684 whole entry): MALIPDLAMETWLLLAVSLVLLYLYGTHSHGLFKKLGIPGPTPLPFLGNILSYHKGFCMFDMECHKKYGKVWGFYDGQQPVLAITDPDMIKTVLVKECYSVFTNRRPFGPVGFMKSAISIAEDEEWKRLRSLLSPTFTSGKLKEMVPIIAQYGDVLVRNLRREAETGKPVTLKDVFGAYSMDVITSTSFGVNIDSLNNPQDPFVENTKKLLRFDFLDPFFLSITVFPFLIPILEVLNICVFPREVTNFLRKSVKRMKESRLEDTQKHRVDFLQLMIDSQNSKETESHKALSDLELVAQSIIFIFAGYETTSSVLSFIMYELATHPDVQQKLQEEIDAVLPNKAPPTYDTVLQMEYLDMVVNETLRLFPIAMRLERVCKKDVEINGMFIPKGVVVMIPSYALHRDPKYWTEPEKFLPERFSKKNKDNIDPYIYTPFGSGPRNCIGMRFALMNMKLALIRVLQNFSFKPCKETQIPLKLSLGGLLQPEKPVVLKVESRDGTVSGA
A further experiment has as its system Streptococcus. The experiment is described as follows: Group A Streptococcus viability loss, dose response, counter-screen for streptokinase expression inhibitor project, luminescence, BacTiterGlo (AID 1915).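 Note: potency for reduction of bacterial viability or growth.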 Format: functional, organism-based. (In general: The purpose of a counterscreen is to sort out artefacts and off-target activity.)
Experiment [5] has as its system Streptococcus sp. 'group A'. The experiment is described as follows: growth inhibition of control SK(-) GAS strain, dose response, counter-screen for streptokinase expression inhibitor project, luminescence, kanamycin, BacTiterGlo, confirmation (AID 1900). Format: functional, organism-based.

The source made the active and inactive calls.

For the compound `Cc1ccc(S(=O)(=O)N2CCN(C(=O)COc3ccc(NC(=O)c4ccco4)cc3)CC2)cc1`, the AC50 in experiment [1] was > 195 µM (inactive).

On to `O=C(COc1cccc(NC(=O)c2cccc([N+](=O)[O-])c2)c1)c1ccc(Br)cc1`, for which the figures for the AC50 on Cytochrome P450 1A2 and on Cytochrome P450 2D6 were 5.62 µM (inconclusive) and 3.16 µM (inconclusive), respectively. `COc1ccc(CCNC(=O)C(=O)NCC2OCCN2S(=O)(=O)c2ccc(OC)cc2)cc1` (centres undefined): in experiment [2], the IC50 is > 47.1 µM (inactive). Moreover, the EC50 in experiment [3] is > 53 µM (inactive). Turning to `O=c1c2ccccc2nc(/C=C/c2ccccc2)n1-c1ccccc1O`, in experiment [1], the AC50 was 4.57 µM (active). `Nc1ccc2[nH]c(S)nc2c1`: the IC50 in experiment [4] is 19.4 µM (active).

For the compound `C=C(CC[C@@H](O)C(C)(C)O)[C@H]1CC[C@]2(C)[C@@H]1CC[C@@H]1[C@@]3(C)CCC(=O)C(C)(C)C3CC[C@]12C` (some centres undefined), the AC50 in [1] was 1.75 µM (active). Consider `CC(=O)NCc1ccc(C(=O)O)cc1`, for which the IC50 in experiment [2] was > 47.1 µM (inactive). The EC50 in experiment [3] is > 53 µM (inactive).

Turning to `Cc1c(C(=O)Nc2nc(-c3ccccn3)cs2)oc2ccccc12`, in the experiment with INS1, the AC50 was 5.62 µM (active). With `CCC/C=C(\CCC)C(NS(=O)(=O)c1ccc(-c2ccccc2)cc1)c1ccc(C(=O)OC)cc1` (centres undefined), the concentration at half-maximal activity (AC50) on Cytochrome P450 2C9 was 3.16 µM (inconclusive); on Cytochrome P450 1A2, 6.31 µM (inconclusive); at Cytochrome P450 2D6, 39.8 µM (inconclusive). For the compound `COc1ncnc(OC)c1S(=O)(=O)Nc1ccc(C(F)(F)F)cc1`, the AC50 in the experiment with INS1 is > 260 µM (inactive).

With `O=C(Oc1ccccc1)N1CCC[C@@]2(CCN(c3ccncc3)C2)C1`, the AC50 at Cytochrome P450 1A2 and on Cytochrome P450 2D6 was 20 µM (inconclusive) each time. In the case of `CN(C)C(=O)C1CC(=O)OC12CCCCC2` (centres undefined), in experiment [2], the IC50 is > 47.1 µM (inactive). Further, in [3], the EC50 is > 53 µM (inactive). On to `O=S(=O)(O)c1ccc2c(/N=N\c3c(O)ccc4ccccc34)cccc2c1`, for which the AC50 is 0.631 µM (inconclusive) at Cytochrome P450 2C19 and 3.16 µM (inconclusive) at Cytochrome P450 1A2. Turning to `COCCn1c(=O)c(-c2ccc(Cl)cc2)nc2cnc(Nc3ccccc3)nc21`, the concentration at half-maximal activity (AC50) at Cytochrome P450 1A2 is 20 µM (inconclusive).

`O=c1cc(N2CCCCC2)c(-c2ccccc2)nn1Cc1ccc(Cl)cc1`: in [1], the AC50 is 2.33 µM (active).

With `O=C(CN(C(=O)CSc1nc2ccccc2o1)c1cccc(F)c1)NC1CCCCC1`, at Cytochrome P450 1A2, the AC50 was 20 µM (inconclusive). On the same count and under the same terms, the value for `COc1cccc(-c2csc(N3CCN(CC(=O)NNC(=O)c4ccc(Cl)cc4)CC3)n2)c1` was 8.91 µM (inconclusive).

For `CNCC[C@@H](Oc1ccccc1C)c1ccccc1` [ATOMOXETINE], the concentration at half-maximal activity (AC50) is 15.8 µM (inconclusive) at Cytochrome P450 1A2 and 12.6 µM (inconclusive) at Cytochrome P450 3A4. Take `CCC/C=C(\CCC)C(NC(=O)Cc1ccccc1)c1ccc(C(=O)OC)cc1` (centres undefined): the concentration at half-maximal activity (AC50) at Cytochrome P450 1A2 was 15.8 µM (inconclusive); on Cytochrome P450 2D6, 5.01 µM (inconclusive). For the compound `O=C(NCC1CCCO1)c1onc(CSc2cccc3ccccc23)c1C(=O)O` (centres undefined), in [2], the IC50 is > 47.1 µM (inactive). The EC50 in [3] is > 53 µM (inactive). For `Cc1nn(C)cc1CN(C)C(=O)c1ccc(OC2CCN(Cc3ccccn3)CC2)cc1`, in that order: > 47.1 µM (inactive) and > 53 µM (inactive).

For `Cc1onc(-c2ccccc2)c1C(=O)N/N=C/c1cc(Br)c(Br)o1`, the IC50 in [2] was > 47.1 µM (inactive). The EC50 in experiment [3] is > 53 µM (inactive). For the compound `COc1cc2c(cc1O)[C@H]1Cc3ccc(OC)c(O)c3CN1CC2`, the AC50 was 7.94 µM (inconclusive) on Cytochrome P450 2C19, 15.8 µM (inconclusive) at Cytochrome P450 1A2 and 12.6 µM (inconclusive) at Cytochrome P450 3A4. Regarding `CC(=O)Oc1ccc(-c2csc(Nc3cccc(C)n3)n2)cc1`, the concentration at half-maximal activity (AC50) in [1] is 6.58 µM (active).

Regarding `O=C(c1cc(-c2cccc(Cl)c2)nc2ccccc12)N1CCN(c2ccccn2)CC1`, the AC50 in the experiment with INS1 is 14.8 µM (active). As to `Cc1ccnc(NC(=O)c2cccc(S(=O)(=O)N3CCCC3)c2)c1`, in [2], the IC50 is > 47.1 µM (inactive). Also, the EC50 in experiment [3] is > 53 µM (inactive). Consider `CC(C)(C)OC(=O)NCc1ccc(NC(=O)c2[nH]cnc2C(=O)NCCCNC(=O)c2nc[nH]c2C(=O)Nc2ccc(CNC(=O)OC(C)(C)C)cc2)cc1`, for which the AC50 in experiment [1] was 1.75 µM (active). On to `CCOc1ccc(C(=O)CCC(=O)N2CCN(c3ccc(O)cc3)CC2)cc1`, for which the AC50 in experiment [1] was 5.57 µM (active).

Take `Cc1ccc(Cl)cc1N(CC(=O)N1CCOCC1)S(C)(=O)=O`: the IC50 in experiment [2] is > 47.1 µM (inactive). Moreover, the EC50 in [3] was > 53 µM (inactive). Regarding `COC(=O)c1c(NC(=O)C(C)(C)C)sc2c1C(C(=O)OC)CC2` (centres undefined), the values for the half-maximal activity concentration (AC50) at Cytochrome P450 2C19 and on Cytochrome P450 1A2 were 14.1 µM (inconclusive) and 0.794 µM (inconclusive), respectively. In the case of `CC1C(=O)N(Cc2cn(CCC3OCCCO3)nn2)CCS(=O)(=O)N1Cc1ccc(-c2ccc(Cl)cc2)cc1` (centres undefined), in experiment [2], the IC50 was > 47.1 µM (inactive). In [3], the EC50 was > 53 µM (inactive). The matching figures for `Cc1c(Cl)c([N+](=O)[O-])nn1CCCC(=O)Nc1cc(Oc2ccccc2)cc([N+](=O)[O-])c1`: > 47.1 µM (inactive) and > 53 µM (inactive). As to `FC(F)(F)c1cc(CCN2C(S)=NC[C@@H]2CC2CCCCC2)cc(C(F)(F)F)c1`, the EC50 with Streptococcus was > 150 µM (not active); in [5], 5.13 µM (active). Besides, the AC50 in [1] is 5.79 µM (active).

Take `CC(C)(C)OC(=O)NCCc1nnc(SCC(=O)Nc2cccc(Cl)c2)o1`: the AC50 on Cytochrome P450 2C9 and at Cytochrome P450 1A2 was 25.1 µM (inconclusive) in each case. Consider `CCC(CC)NC(=O)CC(c1ccccc1)c1ccccc1`, for which, in experiment [2], the IC50 is > 47.1 µM (inactive). Besides, in [3], the EC50 is > 53 µM (inactive). For `CC(C)CN(CC(C)C)C(=O)CCCC(=O)N(CC(C)C)CC(C)C`, in that order: > 47.1 µM (inactive) and > 53 µM (inactive). For `CCOC(=O)c1cc2c(=O)c3cc(C)ccc3oc2nc1C`, in that order: > 47.1 µM (inactive) and > 53 µM (inactive). For `Cc1cccc(-c2cc3nc4c(c(NCc5ccco5)n3n2)CCCC4)c1`, the AC50 in [1] is 7.11 µM (active).

Broadly, the AC50 is the concentration at which the activity in the assay is half-maximal.

Source of the values: ChEMBL document CHEMBL1201862, “PubChem BioAssay data set” (2004).
